Source: patent US20240343727A1, “PYRIDAZINONE OR PYRIDINONE COMPOUNDS, PREPARATION METHODS AND USES THEREOF” (InventisBio Co., Ltd., priority 2021, published 2024)

Biological target: T1, PARP7 (Homo sapiens, UniProt Q7Z3E1)
T1 sequence (Q7Z3E1 1-657): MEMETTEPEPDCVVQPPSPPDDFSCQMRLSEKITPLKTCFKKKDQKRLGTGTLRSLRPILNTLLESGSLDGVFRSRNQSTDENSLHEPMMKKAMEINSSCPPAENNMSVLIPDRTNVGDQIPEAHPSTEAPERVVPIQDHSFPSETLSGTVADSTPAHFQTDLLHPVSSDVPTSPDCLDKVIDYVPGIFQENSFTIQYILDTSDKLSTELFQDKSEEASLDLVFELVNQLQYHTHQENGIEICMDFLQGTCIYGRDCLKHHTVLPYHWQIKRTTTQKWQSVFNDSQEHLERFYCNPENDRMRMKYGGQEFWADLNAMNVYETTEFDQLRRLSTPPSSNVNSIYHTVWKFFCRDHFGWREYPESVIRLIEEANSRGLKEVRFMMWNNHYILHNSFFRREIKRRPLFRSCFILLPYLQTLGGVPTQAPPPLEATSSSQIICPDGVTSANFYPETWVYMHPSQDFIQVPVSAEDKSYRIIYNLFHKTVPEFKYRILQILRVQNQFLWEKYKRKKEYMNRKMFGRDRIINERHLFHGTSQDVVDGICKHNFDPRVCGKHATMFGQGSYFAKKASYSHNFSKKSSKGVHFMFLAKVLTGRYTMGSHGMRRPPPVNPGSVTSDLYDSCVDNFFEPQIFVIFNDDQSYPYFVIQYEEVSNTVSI
Experiment: PARP7 TR-FRET assay (binding, displacement of biotinylated Probe A)
Conditions: 6 nM PARP7, 2 nM Probe A, 25° C., 30 min
Outline: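 Compound displacement of biotinylated Probe A (2 nM) from PARP7 (6 nM) measured by TR-FRET in HEPES pH 8.0 buffer, 30 min at 25° C. Detection used ULight-anti 6xHis (4 nM) plus Eu-streptavidin (0.25 nM) for 30 min, reading the 665/615 nm ratio. % inhibition was taken against DMSO and no-enzyme wells, and IC50 from a Hill fit.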

IC50	Structure (SMILES)
< 0.1 µM	Cn1cc(-c2ccc3c(c2)N(c2cc(C(F)(F)F)c(=O)[nH]n2)CC(CC(=O)N2CCN(c4ncc(C(F)(F)F)cn4)CC2)O3)cn1 (single isomer, unassigned) [Compound 193]
< 0.1 µM	O=C(CC1CN(c2cc(C(F)(F)F)c(=O)[nH]n2)c2ccccc2O1)N1CCN(c2cnc(C(F)(F)F)cn2)CC1 (single isomer, unassigned) [Compound 262]
< 0.1 µM	C[C@@H]1C[C@@H](OCC(=O)N2CCN(c3ncc(C(F)(F)F)cn3)CC2)c2n[nH]c(=O)c(C(F)(F)F)c2O1 [Compound 56]
> 1 µM	O=C(CC1CN(c2cc(C(F)(F)F)c(=O)[nH]n2)c2ccccc2O1)N1CCN(c2ccc(C3CC3)cn2)CC1 (single isomer, unassigned) [Compound 286]
< 0.1 µM	O=C(CC1CN(c2cc(C(F)(F)F)c(=O)[nH]n2)c2ccc(Cl)cc2O1)N1CCN(c2ncc(C(F)(F)F)cn2)CC1 (single isomer, unassigned) [Compound 163]
< 0.1 µM	O=C(c1cccc(Oc2n[nH]c(=O)c(C(F)(F)F)c2N2CC3(CC(F)C3)C2)c1)N1CCN(c2ncc(C(F)(F)F)cn2)CC1 [Compound 176]
< 0.1 µM	O=C(CC1CN(c2cc(C(F)(F)F)c(=O)[nH]n2)c2cc(C3CC3)ccc2O1)N1CCN(c2ncc(C(F)(F)F)cn2)CC1 (single isomer, unassigned) [Compound 134]
0.1 to 1 µM	C[C@H]1CN(c2n[nH]c(=O)c3cccc(F)c23)C[C@H](CC(=O)N2CCN(c3ncc(C(F)(F)F)cn3)CC2)O1 (stereo in doubt) [Compound 88]
< 0.1 µM	COCCNC(=O)c1ccc2c(c1)N(c1cc(C(F)(F)F)c(=O)[nH]n1)CC(CC(=O)N1CCN(c3ncc(C(F)(F)F)cn3)CC1)O2 (single isomer, unassigned) [Compound 310]
< 0.1 µM	O=C(c1cccc(Oc2n[nH]c(=O)c(C(F)(F)F)c2NCC2CCOCC2)c1)N1CCN(c2ncc(C(F)(F)F)cn2)CC1 [Compound 203]
< 0.1 µM	O=C(c1cncc(Oc2n[nH]c(=O)c(C(F)(F)F)c2N2CC3(C2)CC(F)(F)C3)c1)N1CCN(c2cnc(C(F)(F)F)cn2)CC1 [Compound 334]
< 0.1 µM	N#CC1(c2ccc3c(c2)N(c2cc(C(F)(F)F)c(=O)[nH]n2)CC(CC(=O)N2CCN(c4ncc(C(F)(F)F)cn4)CC2)O3)CC1 (single isomer, unassigned) [Compound 137]
< 0.1 µM	C[C@@H]1CN(C(=O)c2cc(Oc3n[nH]c(=O)c(C(F)(F)F)c3N3CC(O)C3)ccn2)CCN1c1ncc(C(F)(F)F)cn1 [Compound 340]
> 1 µM	C#Cc1cc(N2CCOCC2C(=O)N2CCN(c3ncc(C(F)(F)F)cn3)CC2)n[nH]c1=O (stereo not shown) [Compound 46]
< 0.1 µM	C#Cc1c2c(n[nH]c1=O)[C@H](OCC(=O)N1CCN(c3ncc(C(F)(F)F)cn3)CC1)CCO2 [Compound 12]
< 0.1 µM	O=C(COC1CCOc2c1n[nH]c(=O)c2C(F)F)N1CCN(c2ncc(C(F)(F)F)cn2)CC1 (single isomer, unassigned) [Compound 55]
< 0.1 µM	O=C(CC1CN(c2n[nH]c(=O)c3c(Cl)cccc23)CCO1)N1CCN(c2ncc(C(F)(F)F)cn2)CC1 (single isomer, unassigned) [Compound 93]

More lines, now with the values behind:

Structure (SMILES)	IC50
N#Cc1cnc(N2CCN(C(=O)CC3CN(c4cc(C(F)(F)F)c(=O)[nH]n4)c4ccccc4O3)CC2)nc1 (single isomer, unassigned) [Compound 251]	0.1 to 1 µM
C[C@@H]1CN(C(=O)c2cc(Oc3n[nH]c(=O)c(C(F)(F)F)c3N3CC4(C3)CC(F)(F)C4)ccn2)CCN1c1cnc(C(F)(F)F)cn1 [Compound 147]	< 0.1 µM
O=C(CC1CN(c2cc(C(F)(F)F)c(=O)[nH]n2)c2ccc(Cl)cc2O1)N1CCN(c2ncc(C(F)(F)F)cn2)CC1 (single isomer, unassigned) [Compound 164]	0.1 to 1 µM
CC1(C#N)CN(c2c(Oc3cccc(C(=O)N4CCN(c5ncc(C(F)(F)F)cn5)CC4)c3)n[nH]c(=O)c2C(F)(F)F)C1 [Compound 213]	< 0.1 µM
Cc1c(Sc2cccc(C(=O)N3CCN(c4ncc(C(F)(F)F)cn4)CC3)c2)n[nH]c(=O)c1C(F)(F)F [Compound 62]	< 0.1 µM
O=C(c1ccc2c(c1)N(c1cc(C(F)(F)F)c(=O)[nH]n1)CCO2)N1CCN(c2ncc(C(F)(F)F)cn2)CC1 [Compound 30]	0.1 to 1 µM
Cc1c(N2CCC[C@H]2CCC(=O)N2CCN(c3ncc(C(F)(F)F)cn3)CC2)n[nH]c(=O)c1C(F)(F)F [Compound 127]	< 0.1 µM
C[C@@H]1CN(C(=O)CC2CN(c3cc(C(F)(F)F)c(=O)[nH]n3)c3cc(F)ccc3O2)CCN1c1ncc(C#N)cn1 (single isomer, unassigned) [Compound 326]	0.1 to 1 µM
C[C@@H]1CN(C(=O)c2cc(Oc3n[nH]c(=O)c(C(F)(F)F)c3N3CC4(CCC4)C3)ccn2)CCN1c1ncc(C(F)(F)F)cn1 [Compound 352]	< 0.1 µM
O=C(c1cccc(Oc2n[nH]c(=O)c(C(F)(F)F)c2N2CC(F)C2)c1)N1CCN(c2ncc(C(F)(F)F)cn2)CC1 [Compound 85]	< 0.1 µM
O=C(CC1CN(c2cc(C(F)(F)F)c(=O)[nH]n2)c2cc(F)ccc2O1)N1CCN(c2ncc(C(F)(F)F)cn2)CC1 (single isomer, unassigned) [Compound 131]	0.1 to 1 µM
O=C(c1cccc(Oc2n[nH]c(=O)c(C(F)(F)F)c2N2CC3(CC3)C2)c1)N1CCN(c2ncc(C(F)(F)F)cn2)CC1 [Compound 59]	< 0.1 µM
O=C(OC1CN(c2cc(C(F)(F)F)c(=O)[nH]n2)CCC1(F)F)N1CCN(c2ncc(C(F)(F)F)cn2)CC1 (single isomer, unassigned) [Compound 81]	< 0.1 µM
CO[C@H]1C[C@@H](Nc2c(Oc3cccc(C(=O)N4CCN(c5ncc(C(F)(F)F)cn5)CC4)c3)n[nH]c(=O)c2C(F)(F)F)C1 [Compound 191]	< 0.1 µM
C[C@@H]1CN(C(=O)c2cccc(Oc3n[nH]c(=O)c(C(F)(F)F)c3N3CC(C#N)C3)c2)CCN1c1ncc(C(F)(F)F)cn1 [Compound 350]	< 0.1 µM
O=C(c1cccc(Oc2n[nH]c(=O)c(C(F)(F)F)c2N2CC3(CCC3)C2)c1)N1CCN(c2ccc(C(F)(F)F)cn2)CC1 [Compound 187]	< 0.1 µM
O=C(CC1CN(c2n[nH]c(=O)c3ccc(OCC(F)F)cc23)CCO1)N1CCN(c2ncc(C(F)(F)F)cn2)CC1 (single isomer, unassigned) [Compound 211]	< 0.1 µM
O=C(CC1CN(c2cc(C(F)(F)F)c(=O)[nH]n2)c2cc(F)ccc2O1)N1CCN(c2ncc(Br)cn2)CC1 (stereo not shown) [Compound 142]	< 0.1 µM
O=C(CC1CN(c2cc(C(F)(F)F)c(=O)[nH]n2)c2ccc(F)cc2O1)N1CCN(c2ncc(C(F)(F)F)cn2)CC1 (single isomer, unassigned) [Compound 158]	0.1 to 1 µM
N#Cc1ccc(N2CCN(C(=O)c3cc(Oc4n[nH]c(=O)c(C(F)(F)F)c4N4CC5(CCC5)C4)ccn3)CC2)nc1 [Compound 274]	< 0.1 µM
CN1CC[C@H](OCC(=O)N2CCN(c3ncc(C(F)(F)F)cn3)CC2)c2n[nH]c(=O)c(C(F)(F)F)c21 (single isomer, unassigned) [Compound 5]	0.1 to 1 µM
C[C@@H]1CN(C(=O)c2cncc(Oc3n[nH]c(=O)c(C(F)(F)F)c3N3CC4(C3)CC(F)(F)C4)c2)CCN1c1cnc(C(F)(F)F)cn1 [Compound 155]	< 0.1 µM
C[C@@H]1CN(C(=O)CC2CN(c3cc(C(F)(F)F)c(=O)[nH]n3)c3cc(F)ccc3O2)CCN1c1ncc(C#N)cn1 (single isomer, unassigned) [Compound 325]	< 0.1 µM
